“Also recorded” adds a separate entry of the source. Like-named read-outs stand apart in the source and are kept apart here.
How the values were obtained:
[1] = test system: P. aeruginosa (strain PAO1) whole cells and membrane fractions; assay type: binding, Pseudomonas aeruginosa
Endothelial cells = assay: Pretreatment of endothelial cells followed by S1P or HMW PEG challenge (TEER); assay type: cell-based; conditions: 100 nM PMA; baseline 1250 ohm
P. aeruginosa PAO1 = assay type: cell-based, Pseudomonas aeruginosa
[2] = test system: PA-I lectin/adhesin expression in P. aeruginosa; assay type: cell-based, Pseudomonas aeruginosa
[3] = test system: P. aeruginosa PA27853/PLL-EGFP
[4] = test system: rhlI / C4-HSL in P. aeruginosa PAO1; assay: Quorum sensing activation (rhlI mRNA, C4-HSL in supernatants); assay type: cell-based, Pseudomonas aeruginosa
OprF = target: T1, OprF (Pseudomonas aeruginosa, UniProt P13794); assay: Binding of IFN-γ to purified OprF (ELISA); conditions: dose-dependent
T1 sequence (P13794 25-350): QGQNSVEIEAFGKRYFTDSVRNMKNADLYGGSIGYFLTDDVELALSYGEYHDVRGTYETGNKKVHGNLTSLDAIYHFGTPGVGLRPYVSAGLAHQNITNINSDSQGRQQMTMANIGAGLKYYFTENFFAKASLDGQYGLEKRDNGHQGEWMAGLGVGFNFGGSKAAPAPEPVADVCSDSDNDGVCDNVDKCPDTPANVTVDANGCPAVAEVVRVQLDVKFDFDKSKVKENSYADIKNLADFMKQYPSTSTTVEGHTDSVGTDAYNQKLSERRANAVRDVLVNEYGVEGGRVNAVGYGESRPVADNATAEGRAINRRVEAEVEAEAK

Caco-2 cells = assay: TEER of Caco-2 monolayers inoculated with PA27853 with IFN-γ; assay type: cell-based
Description: In addition, strains were exposed to apical media from Caco-2 cells basolaterally exposed to one or more of the various epithelial-derived cytokines. Basolateral exposure of Caco-2 cells to the combination of IFN γ and TNF α activates cellular signaling proteins that dramatically alter tight junctional proteins and function. Media from Caco-2 cells exposed to various combinations of these cytokines had no effect on PA-I expression. However, IFN-γ alone induced a direct effect on PA-I expression while none of the other compounds alone had any effect (FIG. 4). […] Using ELISA, immunofluorescence microscopy, and flow cytometry, the binding characteristics of IFNγ were determined for both whole bacteria and membrane fractions of P. aeruginosa. […] These effects were also observed with strain PAO1. […] This protein can also be immunoprecipitated from E. coli (FIG. 6C). Next, IFN-γ binding specificity to whole bacterial cells was determined using reiterative binding studies in the presence of various gram-negative bacterial strains, including P. aeruginosa. […] Finally, in order to determine if PA-I was functionally expressed in PA27853 in the presence IFN-γ, PA27853 was inoculated onto Caco-2 cell monolayers in the presence of IFN-γ and the effect on barrier dysregulating dynamics of PA27853 against this cell line were assessed to determine if IFN-γ shifted the dynamics. […]

[5] = test system: intestinal epithelial cells; conditions: 0.6% solution; cited from earlier work
[6] = target: protein on the surface of whole cells of P. aeruginosa (strain PAO1)
HPAECs = assay: Intracellular calcium (Fura-2); assay type: cell-based, human; conditions: 1 U/ml thrombin; 1 μM S1P
[7] = test system: human lung microvessel endothelial cells (HLMVEC); assay: Transendothelial electrical resistance (TEER) by ECIS, HMW PEG in serum-free EBM; assay type: cell-based; conditions: thrombin 1 U/ml, control cells
[8] = test system: mice inoculated with PA27853; assay: Mice with slow release morphine pellets drinking PA27853
MDCK monolayers = assay: Purified PA-I on epithelial monolayers (TEER, exotoxin A flux); assay type: cell-based

IL-4: human cytokine
binding to P. aeruginosa cells / cell membranes (ELISA) [1]: No binding was observed

IL-10: human cytokine
binding to P. aeruginosa cells / cell membranes (ELISA) [1]: No binding was observed

CCCCCCCCCCCCCC(=O)O[C@@H]1[C@@H](C)[C@@]2(O)[C@@H](C=C(CO)C[C@]3(O)C(=O)C(C)=C[C@@H]23)[C@@H]2C(C)(C)[C@]12OC(C)=O [PMA]
time for TEER increase to return to baseline (Endothelial cells): 8 h

COC(=O)c1ccccc1N [MA, methyl anthranilate]
ability of U-50,488 to enhance PCN production (P. aeruginosa PAO1): inhibited the ability of U-50,488 to enhance PCN production; also recorded: attenuated the ability of U-50,488 to enhance PCN production

CCCC(=O)N[C@H]1CCOC1=O [C4-HSL, C4-homoserine lactone]
PA-I expression in vitro [2]: induced PA-I expression | induction of PA-I mRNA (Northern blot) [2]: Induction of PA-I mRNA was observed | PCN production in mvfR mutants (P. aeruginosa PAO1): none of these mutants produced PCN | bacterial growth in TSB media (P. aeruginosa PAO1): Neither compound had an effect on bacterial growth | cell density at onset of PCN production (P. aeruginosa PAO1): a shift in the production of PCN to lower cell densities

OC[C@H]1O[C@@H](n2cnc3c(O)ncnc32)[C@H](O)[C@@H]1O [inosine]
timing of PA-I induction compared to adenosine [3]: induced PA-I expression at an earlier time point and at lower cell densities (OD) compared to adenosine | concentration inducing PA-I expression relative to adenosine ([3]; less than adenosine): 10 fold

IFN-γ: recombinant human interferon gamma, immune cytokine
bacterial cells that bound IFN-γ [1]: 73%±3.2% | binding to P. aeruginosa cells / cell membranes (ELISA) [1]: avidly bound to whole fixed cells of P. aeruginosa in a dose-dependent manner | rhlI transcription (Northern blot) ([4]; PAO1): induced rhlI transcription | C4-HSL synthesis ([4]; PAO1, 100 ng/ml IFN-γ): C4-HSL synthesis was increased | PA-I expression in vitro [2]: induced PA-I expression | concentration giving the greatest increase in PA-I protein [2]: 100 ng/mL | induction of PA-I mRNA (Northern blot) [2]: Induction of PA-I mRNA was observed | pyocyanin production (P. aeruginosa PAO1): increased pyocyanin production | binding to purified OprF (OprF): purified OprF directly binds human IFN-γ | PA27853-induced decrease in Caco-2 TEER (Caco-2 cells; 5 hour time point, PA27853 alone decreased TEER by 60%): enhanced in the presence of IFN-γ | Caco-2 TEER, IFN-γ alone (Caco-2 cells; without bacteria): Neither media nor IFN-γ alone altered TEER | PA-I promoter activity / expression (fluorescence) [3]: Only IFN-γ induced PA-I promoter activity

Nc1ncnc2c1ncn2[C@@H]1O[C@H](COP(=O)(O)O)[C@@H](O)[C@H]1O [AMP]
PA-I promoter activity / expression (fluorescence) [3]: no evident inducing effects

C[C@H](O)C(=O)O [L-lactate]
PA-I promoter activity / expression (fluorescence) [3]: had no effect on PA-I promoter activity

CC(=O)N[C@H]1C(O)O[C@H](CO)[C@H](O)[C@@H]1O (stereo partly drawn) [GalNAc, N-acetyl-D-galactosamine]
adhesion of P. aeruginosa to intestinal epithelial cells [5]: markedly decreased adhesion to intestinal epithelial cells

Oc1ccc2c3c1O[C@H]1c4[nH]c5c(c4C[C@@]4(O)[C@@H](C2)N(CC2CC2)CC[C@]314)C[C@@]1(O)[C@H]2Cc3ccc(O)c4c3[C@@]1(CCN2CC1CC1)[C@H]5O4 [NOR, nor-binaltorphimine]
U-50,488-enhanced PCN production (P. aeruginosa PAO1): completely inhibited enhanced PCN production

EGF: human cytokine tested for membrane binding
binding to P. aeruginosa cells / cell membranes (ELISA) [1]: No binding was observed

TGF-β
binding to P. aeruginosa cells / cell membranes (ELISA) [1]: No binding was observed

recombinant human IFN-γ (rH IFN-γ) (from UniProt P01579 24-166) (ligand)
percent of bacterial cells that bound IFN-γ [6]: 73%

C[C@@H](O)C(=O)O [D-lactate]
PA-I promoter activity / expression (fluorescence) [3]: had no effect on PA-I promoter activity

thrombin
intracellular calcium on stimulation of ECs (HPAECs): induced intracellular calcium spikes | decrease in resistance [7]: over 50% | maximum decrease in resistance [7]: approximately 1200 ohm

Nc1ncnc2c1ncn2[C@@H]1O[C@H](COP(=O)(O)OP(=O)(O)OP(=O)(O)O)[C@@H](O)[C@H]1O [ATP]
PA-I promoter activity / expression (fluorescence) [3]: no evident inducing effects

NC[C@H](O)c1ccc(O)c(O)c1 [norepinephrine]
PA-I expression in vitro [2]: did not change PA-I expression; also recorded: PA-I expression was not affected by this compound

CN1CC[C@]23c4c5ccc(O)c4O[C@H]2[C@@H](O)C=C[C@H]3[C@H]1C5 [morphine]
mortality ([8]; PA27853): significant mortality | mice developing severe sepsis ([8]; PA27853 1×10^8 cfu/ml daily): 4/4 | increase in PA-I mRNA [2]: four-fold increase | increase in PA-I mRNA ([2]; PA27853, morphine 13 μM, quantitative RT-PCR): 4 fold

OC[C@H]1O[C@H](OCC2O[C@@H](O)[C@H](O)[C@@H](O)[C@@H]2O)[C@H](O)[C@@H](O)[C@H]1O (stereo partly shown) [mellibiose]
adhesion of P. aeruginosa to intestinal epithelial cells [5]: markedly decreased adhesion to intestinal epithelial cells

Nc1ncnc2c1ncn2[C@@H]1O[C@H](COP(=O)(O)OP(=O)(O)O)[C@@H](O)[C@H]1O [ADP]
PA-I promoter activity / expression (fluorescence) [3]: no evident inducing effects

dynorphin
PCN production (P. aeruginosa PAO1): enhanced PCN production in a dose-dependent manner

B1: PA-I: purified lectin/adhesin of P. aeruginosa, four 13 kDa subunits, binds D-galactose (protein, UniProt Q05097 2-122, looked up)
PA-I galactophilic lectin: AWKGEVLANNEAGQVTSIIYNPGDVITIVAAGWASYGPTQKWGPQGDREHPDQGLICHDAFCGALVMKIGNSGTIPVNTGLFRWVAPNNVQGAITLIYNDVPGTYGNNSGSFSVNIGKDQS
TEER of epithelial cells (MDCK monolayers; purified PA-I): decreased the TEER of epithelial cells to the same degree as P. aeruginosa | increase in exotoxin A flux across MDCK cells (MDCK monolayers; when TEER decreased below 50% of control by pure PA-I protein): five-fold increase

B2: adenosine deaminase: enzyme added to deplete the media of adenosine (protein, UniProt P00813 2-363, looked up)
Adenosine deaminase: AQTPAFDKPKVELHVHLDGSIKPETILYYGRRRGIALPANTAEGLLNVIGMDKPLTLPDFLAKFDYYMPAIAGCREAIKRIAYEFVEMKAKEGVVYVEVRYSPHLLANSKVEPIPWNQAEGDLTPDEVVALVGQGLQEGERDFGVKARSILCCMRHQPNWSPKVVELCKKYQQQTVVAIDLAGDETIPGSSLLPGHVQAYQEAVKSGIHRTVHAGEVGSAEVVKEAVDILKTERLGHGYHTLEDQALYNRLRQENMHFEICPWSSYLTGAWKPDTEHAVIRLKNDQANYSLNTDDPLIFKSTLDTDYQMTKRDMGFTEEEFKRLNINAAKSSFLPEDEKRELLDLLYKAYGMPPSASAGQNL
PA-I expression after depletion of adenosine from HIF-1-α activated Caco-2 media ([3]; Caco-2): even greater increase in PA-I expression

Source: patent US20090186949A1, “Method for Treating Endothelial and Epithelial Cell Disorders by Administering High Molecular Weight PEG-Like Compounds” (THE UNIVERSITY OF CHICAGO, priority 2006, published 2009)
